Reference: ChEMBL document CHEMBL5104165, “Novel fragment-derived colchicine-site binders as microtubule-destabilizing agents” (Eur J Med Chem, 2022)
Calls of active or inactive are those of the source. The rule behind the calls is not given here.

Experiments:
HeLa = test: Cytotoxicity against human HeLa cells assessed as inhibition of cell growth incubated for 72 hrs by resazurin dye based assay; assay type: functional
Tubulin (Homo sapiens) [1] = target: T1, Tubulin (Homo sapiens) (UniProt P68371+Q9H4B7+P0DPH7+P68366+Q13509+Q71U36+P04350+Q3ZCM7+P07437+P68363+Q9BQE3+Q6PEY2+Q13885+Q9BVA1+Q9BUF5); test: Disruption of microtubules in human HMF3A cells at 5 uM measured after 1 hr by immunostaining based confocal microscopic analysis; assay type: cell-based
Tubulin (Homo sapiens) [2] = target: T1, Tubulin (Homo sapiens); test: Disruption of microtubules in human HMF3A cells assessed as increase in cell size at 5 uM measured after 4 hrs by immunostaining based confocal microscopic analysis
Tubulin (Homo sapiens) [3] = target: T1, Tubulin (Homo sapiens); test: Disruption of microtubules in human HMF3A cells assessed as increase in nucleus size at 5 uM measured after 4 hrs by immunostaining based confocal microscopic analysis; assay type: cell-based

| SMILES | IC50 (HeLa) [µM] | further results |
| --- | --- | --- |
| FC(F)(F)c1ccc2[nH]c(NCc3ccco3)nc2c1 | 9.9 |  |
| Cc1ccc2[nH]c(NCc3ccco3)nc2c1 | 5.6 |  |
| c1coc(CNc2nc3ccccc3[nH]2)c1 | 54 |  |
| Clc1ccc2[nH]c(NCc3ccco3)nc2c1 | 4.5 |  |
| COC(=O)c1ccc2[nH]c(NCc3ccco3)nc2c1 | 7 |  |
| COc1ccc2[nH]c(NCc3ccco3)nc2c1 | 10.1 |  |
| N#Cc1ccc2[nH]c(NCc3ccco3)nc2c1 | > 80 |  |
| Cc1ccc(CNc2nc3ccccc3[nH]2)o1 | 22.3 |  |
| c1ccc(Oc2ccc3[nH]c(NCc4ccco4)nc3c2)cc1 | 0.94 | Activity (Tubulin (Homo sapiens) [1]): Active; Activity (Tubulin (Homo sapiens) [2]): Active; Activity (Tubulin (Homo sapiens) [3]): Active |
